Test results from patent publication US9636418B2 (priority 2013, dated 2017).
“And” between values parts separate entries of the source, which are not always exact repeats. Equal values may be shown once.

Columns and labels:
Assay in all cases: cell-based
hNav1.7 = hNav1.7 (Homo sapiens, UniProt Q15858); settings: IonWorks Quattro; read-out: IC50 Nav1.7
hNav1.4 = hNav1.4 (Homo sapiens, UniProt P35499); settings: for IC50: IonWorks Quattro, read-out: IC50 Nav1.4; for Nav1.4/Nav1.7: ratio of IonWorks Quattro IC50 values
hNav1.5 = hNav1.5 (Homo sapiens, UniProt Q14524); settings: IonWorks Quattro; read-out: IC50 Nav1.5
Chain of hNav1.5 (Q14524 whole entry): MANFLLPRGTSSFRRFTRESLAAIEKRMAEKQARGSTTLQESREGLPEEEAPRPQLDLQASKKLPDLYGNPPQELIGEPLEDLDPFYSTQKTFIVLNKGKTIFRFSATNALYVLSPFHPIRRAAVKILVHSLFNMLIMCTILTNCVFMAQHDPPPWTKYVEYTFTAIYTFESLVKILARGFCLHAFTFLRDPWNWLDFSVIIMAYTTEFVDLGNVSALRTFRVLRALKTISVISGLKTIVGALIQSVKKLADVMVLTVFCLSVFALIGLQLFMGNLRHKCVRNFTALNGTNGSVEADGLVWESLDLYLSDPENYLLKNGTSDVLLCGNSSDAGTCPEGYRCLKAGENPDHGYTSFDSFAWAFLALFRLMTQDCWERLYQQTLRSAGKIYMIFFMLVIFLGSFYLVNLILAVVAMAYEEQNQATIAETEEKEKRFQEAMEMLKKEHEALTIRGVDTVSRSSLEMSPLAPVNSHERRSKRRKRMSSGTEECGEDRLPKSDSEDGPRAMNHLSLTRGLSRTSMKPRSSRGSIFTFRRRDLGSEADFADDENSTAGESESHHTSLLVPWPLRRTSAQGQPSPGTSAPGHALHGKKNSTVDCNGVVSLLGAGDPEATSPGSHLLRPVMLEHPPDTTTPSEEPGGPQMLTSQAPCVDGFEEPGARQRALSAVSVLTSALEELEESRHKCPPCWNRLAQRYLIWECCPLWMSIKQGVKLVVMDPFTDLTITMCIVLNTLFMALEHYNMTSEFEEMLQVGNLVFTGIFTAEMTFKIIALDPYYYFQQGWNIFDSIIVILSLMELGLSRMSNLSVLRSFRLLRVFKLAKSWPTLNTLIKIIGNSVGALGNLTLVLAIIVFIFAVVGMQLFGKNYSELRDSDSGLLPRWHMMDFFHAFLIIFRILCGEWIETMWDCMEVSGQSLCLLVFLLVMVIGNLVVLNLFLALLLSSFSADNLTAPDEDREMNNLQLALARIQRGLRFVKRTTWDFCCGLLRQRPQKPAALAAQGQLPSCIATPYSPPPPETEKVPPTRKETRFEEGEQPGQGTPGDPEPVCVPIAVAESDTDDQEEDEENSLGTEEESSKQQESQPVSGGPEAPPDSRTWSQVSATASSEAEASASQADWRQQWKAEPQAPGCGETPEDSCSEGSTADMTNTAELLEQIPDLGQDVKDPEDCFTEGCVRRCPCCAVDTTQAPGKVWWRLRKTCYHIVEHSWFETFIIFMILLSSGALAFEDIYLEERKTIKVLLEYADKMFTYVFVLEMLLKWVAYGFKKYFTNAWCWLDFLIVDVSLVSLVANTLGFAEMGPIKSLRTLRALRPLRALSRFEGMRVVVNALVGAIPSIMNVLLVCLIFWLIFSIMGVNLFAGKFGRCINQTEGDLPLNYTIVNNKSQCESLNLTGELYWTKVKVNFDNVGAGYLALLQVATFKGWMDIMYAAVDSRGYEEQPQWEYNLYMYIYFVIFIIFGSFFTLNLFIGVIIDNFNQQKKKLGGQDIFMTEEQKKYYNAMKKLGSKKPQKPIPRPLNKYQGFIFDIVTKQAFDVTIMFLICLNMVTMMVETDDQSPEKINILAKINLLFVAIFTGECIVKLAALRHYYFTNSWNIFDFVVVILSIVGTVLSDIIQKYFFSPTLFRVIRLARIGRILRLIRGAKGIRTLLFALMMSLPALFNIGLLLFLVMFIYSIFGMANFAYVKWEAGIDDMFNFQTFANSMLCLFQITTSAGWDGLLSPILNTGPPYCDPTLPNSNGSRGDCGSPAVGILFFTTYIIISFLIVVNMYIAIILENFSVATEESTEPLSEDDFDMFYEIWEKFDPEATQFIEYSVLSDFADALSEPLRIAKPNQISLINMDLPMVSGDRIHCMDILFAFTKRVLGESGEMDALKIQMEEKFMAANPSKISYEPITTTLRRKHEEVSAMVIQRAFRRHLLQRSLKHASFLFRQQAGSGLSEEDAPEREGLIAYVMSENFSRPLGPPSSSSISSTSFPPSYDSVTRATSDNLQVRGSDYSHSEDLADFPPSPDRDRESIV

hNav1.3 = hNav1.3 (Homo sapiens, UniProt Q9NY46); settings: IonWorks Quattro; read-out: IC50 Nav1.3

Chain of hNav1.7 (Q15858 whole entry): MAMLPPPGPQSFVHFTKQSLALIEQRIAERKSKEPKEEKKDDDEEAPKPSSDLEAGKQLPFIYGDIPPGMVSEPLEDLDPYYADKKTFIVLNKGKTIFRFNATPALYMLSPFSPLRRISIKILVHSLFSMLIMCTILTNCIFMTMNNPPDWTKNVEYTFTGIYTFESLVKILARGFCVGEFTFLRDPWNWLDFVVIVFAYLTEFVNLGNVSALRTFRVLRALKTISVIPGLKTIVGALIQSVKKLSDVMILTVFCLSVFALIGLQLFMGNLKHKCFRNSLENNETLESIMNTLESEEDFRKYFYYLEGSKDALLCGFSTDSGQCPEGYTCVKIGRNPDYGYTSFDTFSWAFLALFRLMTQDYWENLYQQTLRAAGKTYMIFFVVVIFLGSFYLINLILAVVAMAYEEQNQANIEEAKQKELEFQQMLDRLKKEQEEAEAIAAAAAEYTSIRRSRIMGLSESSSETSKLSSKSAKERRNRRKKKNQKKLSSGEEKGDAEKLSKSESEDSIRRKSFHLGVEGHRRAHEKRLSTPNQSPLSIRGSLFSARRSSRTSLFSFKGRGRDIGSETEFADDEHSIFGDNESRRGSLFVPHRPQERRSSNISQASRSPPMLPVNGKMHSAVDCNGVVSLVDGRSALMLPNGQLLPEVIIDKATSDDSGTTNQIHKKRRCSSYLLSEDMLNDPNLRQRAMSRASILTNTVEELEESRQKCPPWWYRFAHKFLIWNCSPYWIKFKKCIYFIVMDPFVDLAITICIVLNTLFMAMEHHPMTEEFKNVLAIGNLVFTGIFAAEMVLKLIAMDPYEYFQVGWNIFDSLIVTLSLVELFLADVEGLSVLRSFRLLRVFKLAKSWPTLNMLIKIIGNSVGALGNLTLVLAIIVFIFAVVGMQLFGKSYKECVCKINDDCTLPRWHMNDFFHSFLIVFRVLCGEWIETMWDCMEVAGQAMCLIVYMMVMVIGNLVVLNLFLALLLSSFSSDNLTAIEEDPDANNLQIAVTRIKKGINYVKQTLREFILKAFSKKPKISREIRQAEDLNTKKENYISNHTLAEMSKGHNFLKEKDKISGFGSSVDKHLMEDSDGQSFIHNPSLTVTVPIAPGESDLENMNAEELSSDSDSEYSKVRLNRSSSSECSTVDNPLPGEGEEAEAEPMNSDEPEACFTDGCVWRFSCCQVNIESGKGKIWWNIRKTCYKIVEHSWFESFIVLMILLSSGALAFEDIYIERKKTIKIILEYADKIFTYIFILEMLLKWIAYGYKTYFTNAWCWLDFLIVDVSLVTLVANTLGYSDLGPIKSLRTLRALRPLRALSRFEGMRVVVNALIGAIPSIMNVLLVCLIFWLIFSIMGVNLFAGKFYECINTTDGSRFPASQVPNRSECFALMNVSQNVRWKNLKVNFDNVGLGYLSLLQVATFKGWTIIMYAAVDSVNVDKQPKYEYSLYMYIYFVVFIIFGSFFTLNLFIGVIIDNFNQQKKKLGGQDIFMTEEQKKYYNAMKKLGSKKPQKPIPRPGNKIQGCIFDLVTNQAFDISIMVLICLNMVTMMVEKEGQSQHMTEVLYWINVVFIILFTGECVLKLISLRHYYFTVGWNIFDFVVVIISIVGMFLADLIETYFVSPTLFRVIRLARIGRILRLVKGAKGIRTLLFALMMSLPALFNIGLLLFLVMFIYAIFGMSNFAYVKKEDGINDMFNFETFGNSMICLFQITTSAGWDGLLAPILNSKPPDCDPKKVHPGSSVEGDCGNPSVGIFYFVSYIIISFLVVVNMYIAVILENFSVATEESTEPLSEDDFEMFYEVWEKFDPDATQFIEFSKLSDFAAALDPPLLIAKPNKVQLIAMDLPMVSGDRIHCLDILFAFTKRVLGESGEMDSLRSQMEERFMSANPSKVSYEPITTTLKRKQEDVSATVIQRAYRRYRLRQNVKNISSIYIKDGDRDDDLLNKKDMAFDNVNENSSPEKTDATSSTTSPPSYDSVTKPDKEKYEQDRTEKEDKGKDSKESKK

| SMILES | IC50 (hNav1.7) | IC50 (hNav1.4) [µM] | IC50 (hNav1.5) [µM] | IC50 (hNav1.3) [µM] | Nav1.4/Nav1.7 (hNav1.4) |
| --- | --- | --- | --- | --- | --- |
| CSCC[C@@H]1NC(=O)[C@H](Cc2c[nH]c3ccccc23)NC(=O)[C@H](CCCCN)NC(=O)[C@H](CCC(N)=O)NC(=O)[C@@H](NC(=O)[C@@H](N)Cc2ccc(O)cc2)CSSC[C@@H]2NC(=O)[C@@H]3CSSC[C@@H](C(=O)N[C@@H](CCCNC(=N)N)C(=O)N[C@@H](CCCCN)C(=O)N[C@@H](Cc4ccc(O)cc4)C(=O)N[C@@H](CC(N)=O)C(N)=O)NC(=O)[C@H](Cc4c[nH]c5ccccc45)NC(=O)[C@H](CC(C)C)NC(=O)[C@H](CCCCN)NC(=O)[C@H](CSSC[C@H](NC(=O)[C@H]([C@@H](C)O)NC(=O)[C@H](Cc4c[nH]c5ccccc45)NC1=O)C(=O)N[C@@H](CC(=O)O)C(=O)N[C@@H](CO)C(=O)N[C@@H](CCCCN)C(=O)N[C@@H](CCCNC(=N)N)C(=O)N[C@@H](C)C(=O)N3)NC(=O)[C@H](CCC(=O)O)NC(=O)[C@H](CC(C)C)NC(=O)CNC(=O)[C@H](CCC(=O)O)NC2=O [compound 243] | 0.52 µM | > 5 | > 5 | > 5 | – |
| CC[C@H](C)[C@H](NC(=O)[C@@H](NC(=O)[C@H](CCCCN)NC(=O)[C@H](CCCNC(=N)N)NC(=O)[C@@H]1CSSC[C@@H]2NC(=O)[C@H](C)NC(=O)[C@H](CCCNC(=N)N)NC(=O)[C@H](CCCCN)NC(=O)[C@H](CO)NC(=O)[C@H](CC(=O)O)NC(=O)[C@@H]3CSSC[C@H](NC(=O)[C@H](CCC(=O)O)NC(=O)[C@H](CC(C)C)NC(=O)CNC(=O)[C@H](CCC(=O)O)NC(=O)[C@H](CSSC[C@H](NC(=O)[C@@H](N)Cc4ccc(O)cc4)C(=O)N[C@@H](CCC(N)=O)C(=O)N[C@@H](CCCCN)C(=O)N[C@@H](Cc4c[nH]c5ccccc45)C(=O)N[C@@H](CCSC)C(=O)N[C@@H](Cc4c[nH]c5ccccc45)C(=O)N[C@@H]([C@@H](C)O)C(=O)N3)NC2=O)C(=O)N[C@@H](CCCCN)C(=O)N[C@@H](Cc2cn(CCCOCCOCCOCCOCCOCCOCCOCCOCCOCCOCCN)nn2)C(=O)N[C@@H](Cc2c[nH]c3ccccc23)C(=O)N1)[C@@H](C)CC)C(N)=O [compound 183] | ≥ 5 µM | > 5 | 19.2 | > 5 | 1 |
| CC[C@H](C)[C@H](NC(=O)[C@H](Cc1ccc(O)cc1)NC(=O)[C@H](CCCCN)NC(=O)[C@H](CCCNC(=N)N)NC(=O)[C@@H]1CSSC[C@@H]2NC(=O)[C@H](C)NC(=O)[C@H](CCCNC(=N)N)NC(=O)[C@H](CCCCN)NC(=O)[C@H](CO)NC(=O)[C@H](CC(=O)O)NC(=O)[C@@H]3CSSC[C@H](NC(=O)[C@H](CCC(=O)O)NC(=O)[C@H](CC(C)C)NC(=O)CNC(=O)[C@H](CCC(=O)O)NC(=O)[C@H](CSSC[C@H](NC(=O)[C@@H](N)Cc4ccc(O)cc4)C(=O)N[C@@H](CCC(N)=O)C(=O)N[C@@H](CCCCN)C(=O)N[C@@H](Cc4c[nH]c5ccccc45)C(=O)N[C@@H](CCSC)C(=O)N[C@@H](Cc4c[nH]c5ccccc45)C(=O)N[C@@H]([C@@H](C)O)C(=O)N3)NC2=O)C(=O)N[C@@H](CCCCN)C(=O)N[C@@H](CC(C)C)C(=O)N[C@@H](Cc2ccc3ccccc3c2)C(=O)N1)C(N)=O [compound 219] | 0.86 µM and 1 µM | > 7 | > 7 | > 7 | – |
| CC[C@H](C)[C@H](NC(=O)[C@H](Cc1ccc(O)cc1)NC(=O)[C@H](CCCCN)NC(=O)[C@H](CCCNC(=N)N)NC(=O)[C@@H]1CSSC[C@@H]2NC(=O)[C@H](C)NC(=O)[C@H](CCCNC(=N)N)NC(=O)[C@H](CCCCN)NC(=O)[C@H](CO)NC(=O)[C@H](CC(=O)O)NC(=O)[C@@H]3CSSC[C@H](NC(=O)[C@H](CCC(=O)O)NC(=O)[C@H](CC(C)C)NC(=O)CNC(=O)[C@H](CCC(=O)O)NC(=O)[C@H](CSSC[C@H](NC(=O)[C@@H](N)Cc4ccc(O)cc4)C(=O)N[C@@H](CCC(N)=O)C(=O)N[C@@H](CCCCN)C(=O)N[C@@H](Cc4ccc(O)cc4)C(=O)N[C@@H](CCSC)C(=O)N[C@@H](Cc4c[nH]c5ccccc45)C(=O)N[C@@H]([C@@H](C)O)C(=O)N3)NC2=O)C(=O)N[C@@H](CCCCN)C(=O)N[C@@H](CC(C)C)C(=O)N[C@@H](Cc2c[nH]c3ccccc23)C(=O)N1)C(N)=O [compound 194] | 0.91 µM and 2.5 µM | > 5 | > 5 | > 5 | – |
| CC[C@H](C)[C@H](NC(=O)[C@@H](NC(=O)[C@H](CCCCN)NC(=O)[C@H](CCCNC(=N)N)NC(=O)[C@@H]1CSSC[C@@H]2NC(=O)[C@H](C)NC(=O)[C@H](CCCNC(=N)N)NC(=O)[C@H](CCCCN)NC(=O)[C@H](CO)NC(=O)[C@H](CC(=O)O)NC(=O)[C@@H]3CSSC[C@H](NC(=O)[C@H](C(C)C)NC(=O)[C@H](CC(C)C)NC(=O)CNC(=O)[C@H](CCC(=O)O)NC(=O)[C@H](CSSC[C@H](NC(=O)[C@@H](N)Cc4ccc(O)cc4)C(=O)N[C@@H](CCC(N)=O)C(=O)N[C@@H](CCCCN)C(=O)N[C@@H](Cc4c[nH]c5ccccc45)C(=O)N[C@@H](CCSC)C(=O)N[C@@H](Cc4c[nH]c5ccccc45)C(=O)N[C@@H]([C@@H](C)O)C(=O)N3)NC2=O)C(=O)N[C@@H](CCCCN)C(=O)N[C@@H](CC(C)C)C(=O)N[C@@H](Cc2c[nH]c3ccccc23)C(=O)N1)[C@@H](C)CC)C(N)=O [compound 120] | 0.1 µM | 3 | 7.1 | 3.37 | 31 |
| CC[C@H](C)[C@H](NC(=O)[C@@H](NC(=O)[C@H](CCCCN)NC(=O)[C@H](CCCNC(=N)N)NC(=O)[C@@H]1CSSC[C@@H]2NC(=O)[C@H](C)NC(=O)[C@H](CCCNC(=N)N)NC(=O)[C@H](CCCCN)NC(=O)[C@H](CO)NC(=O)[C@H](CC(=O)O)NC(=O)[C@@H]3CSSC[C@H](NC(=O)[C@H](CCCNC(N)=O)NC(=O)[C@H](CC(C)C)NC(=O)CNC(=O)[C@H](CCC(=O)O)NC(=O)[C@H](CSSC[C@H](NC(=O)[C@@H](N)Cc4ccc(O)cc4)C(=O)N[C@@H](CCC(N)=O)C(=O)N[C@@H](CCCCN)C(=O)N[C@@H](Cc4c[nH]c5ccccc45)C(=O)N[C@@H](CCSC)C(=O)N[C@@H](Cc4c[nH]c5ccccc45)C(=O)N[C@@H]([C@@H](C)O)C(=O)N3)NC2=O)C(=O)N[C@@H](CCCCN)C(=O)N[C@@H](CC(C)C)C(=O)N[C@@H](Cc2c[nH]c3ccccc23)C(=O)N1)[C@@H](C)CC)C(N)=O [compound 122] | 0.04 µM | 0.5 | 6.8 | 0.35 | 15 |
| CSCC[C@@H]1NC(=O)[C@H](Cc2c[nH]c3ccccc23)NC(=O)[C@H](CCCCN)NC(=O)[C@H](CCC(N)=O)NC(=O)[C@@H](NC(=O)[C@@H](N)Cc2ccc(O)cc2)CSSC[C@@H]2NC(=O)[C@@H]3CSSC[C@@H](C(=O)N[C@@H](CCCNC(=N)N)C(=O)N[C@@H](CCCCN)C(=O)N[C@@H](Cc4ccc(O)cc4)C(=O)N[C@@H](CCCNC(N)=O)C(N)=O)NC(=O)[C@H](Cc4c[nH]c5ccccc45)NC(=O)[C@H](CC(C)C)NC(=O)[C@H](CCCCN)NC(=O)[C@H](CSSC[C@H](NC(=O)[C@H]([C@@H](C)O)NC(=O)[C@H](Cc4c[nH]c5ccccc45)NC1=O)C(=O)N[C@@H](CC(=O)O)C(=O)N[C@@H](CO)C(=O)N[C@@H](CCCCN)C(=O)N[C@@H](CCCNC(=N)N)C(=O)N[C@@H](C)C(=O)N3)NC(=O)[C@H](CCC(=O)O)NC(=O)[C@H](CC(C)C)NC(=O)CNC(=O)[C@H](CCC(=O)O)NC2=O [compound 241] | 1.2 µM | > 5 | > 5 | > 5 | – |
| CCCC[C@@H]1NC(=O)[C@H](Cc2c[nH]c3ccccc23)NC(=O)[C@H](CCCCN)NC(=O)[C@H](CCC(N)=O)NC(=O)[C@@H](NC(=O)[C@@H](N)Cc2ccc(O)cc2)CSSC[C@@H]2NC(=O)[C@@H]3CSSC[C@@H](C(=O)N[C@@H](CCCNC(=N)N)C(=O)N[C@@H](CCCCN)C(=O)N[C@H](C(=O)N[C@H](C(N)=O)[C@@H](C)CC)[C@@H](C)CC)NC(=O)[C@H](Cc4c[nH]c5ccccc45)NC(=O)[C@H](CC(C)C)NC(=O)[C@H](CCCCN)NC(=O)[C@H](CSSC[C@H](NC(=O)[C@H](Cc4cn(CCCOCCOCCOCCOCCOCCOCCOCCOCCOCCOCCN)nn4)NC(=O)[C@H](Cc4c[nH]c5ccccc45)NC1=O)C(=O)N[C@@H](CC(=O)O)C(=O)N[C@@H](CO)C(=O)N[C@@H](CCCCN)C(=O)N[C@@H](CCCNC(=N)N)C(=O)N[C@@H](C)C(=O)N3)NC(=O)[C@H](CCCNC(=N)N)NC(=O)[C@H](CC(C)C)NC(=O)CNC(=O)[C@H](CCC(=O)O)NC2=O [compound 254] | 6.4 µM | > 7 | > 7 | > 7 | – |
| CSCC[C@@H]1NC(=O)[C@H](Cc2c[nH]c3ccccc23)NC(=O)[C@H](CCCCN)NC(=O)[C@H](CCC(N)=O)NC(=O)[C@@H](NC(=O)[C@@H](N)Cc2ccc(O)cc2)CSSC[C@@H]2NC(=O)[C@@H]3CSSC[C@@H](C(=O)N[C@@H](CCCNC(=N)N)C(=O)N[C@@H](CCCCN)C(=O)N[C@@H](Cc4ccc(O)cc4)C(=O)N[C@@H](CCC(=O)O)C(N)=O)NC(=O)[C@H](Cc4c[nH]c5ccccc45)NC(=O)[C@H](CC(C)C)NC(=O)[C@H](CCCCN)NC(=O)[C@H](CSSC[C@H](NC(=O)[C@H]([C@@H](C)O)NC(=O)[C@H](Cc4c[nH]c5ccccc45)NC1=O)C(=O)N[C@@H](CC(=O)O)C(=O)N[C@@H](CO)C(=O)N[C@@H](CCCCN)C(=O)N[C@@H](CCCNC(=N)N)C(=O)N[C@@H](C)C(=O)N3)NC(=O)[C@H](CCC(=O)O)NC(=O)[C@H](CC(C)C)NC(=O)CNC(=O)[C@H](CCC(=O)O)NC2=O [compound 245] | 4.7 µM | > 5 | > 5 | > 5 | – |
